Legend:
[1] = system: human malignant melanoma cell line (A-375); test: Cytotoxicity in A-375 cells, CellTiter-Glo ATP viability, 48-h incubation; type: cell-based; conditions: for CC50 / cytotoxicity at 50 µM: Homo sapiens, 48 h; for CC50: A-375, 48 h, cytotoxic concentration that caused death of 50% cells; for CC50 / cytotoxicity at 50 µM / Cytotoxic activity in A-375 cells (in words): A-375 cells; for cytotoxicity at 50 µM: read-out: Primary Test Result (Cytotoxicity % at 50 µM in A-375 Cells); for Selectivity Index: ratio of CC50 in Hs27 fibroblasts over CC50 in A-375 melanoma cells; for Cytotoxic activity in A-375 cells (in words): SAR discussion
Procedure: (§1) Human malignant melanoma cell line A-375 was kindly provided by Prof. Marikki Laiho (University of Helsinki, Finland) and Hs27 human skin fibroblast cell line was kindly provided by Dr. Carmen Escobedo-Lucea (University of Helsinki, Finland). The cells were maintained in Glutamax high glucose Dulbecco’s Modified Eagle’s Medium (DMEM, Gibco), supplemented with 10% fetal bovine serum (FBS, Gibco), at 37 °C, 5% CO2.
(§2) The cells were seeded to white frame and clear bottom 96-well plates (Perkin Elmer) at the density of 10,000 cells/well for A-375 cell line and 7500 cells/well for Hs27 cell line. The cells were grown at 37 °C, 5% CO2 until they reached 70–80% confluence (approximately 24 h). Stock solutions of test compounds and a positive control (camptothecin, Sigma-Aldrich, Saint Louis, MO, USA) were prepared in DMSO and diluted into assay medium (growth medium with 5% FBS) to the final concentration. Final DMSO concentration was 0.5% in all samples. The culture medium was removed from the plate and compounds added, 200 µL/well. After 48-h incubation, the amount of ATP, which is directly proportional to the number of cells present in culture, was quantified using CellTiter-Glo® Luminescent Cell Viability kit (Promega, Madison, WI, USA), according to manufacturer’s instructions.
(§3) Origin Graphing and Analysis, version 8.6 (OriginLab, Northampton, MA, USA) was used for determination of CC50 values. The cancer cell selectivity index (SI) was calculated as a ratio of CC50 values between Hs27 fibroblasts and A-375 melanoma cells.

[2] = Cytotoxicity in Hs27 cells, CellTiter-Glo ATP viability, 48-h incubation; type: cell-based; conditions: human, Hs27 normal skin fibroblast cells, Hs27 normal fibroblasts
Procedure: as §1, §2, §3

[3] = system: A2780S, A2780CP (SCP5), A549, MCF7, U251MG cells and NIH3T3; parameters: method as in PMID 26711149; conditions: cited from earlier work
[4] = system: human cervical carcinoma HeLa cells; parameters: method as in doi:10.1016/j.tetlet.2010.07.016; conditions: cited from earlier work

| SMILES | CC50 [1] | cytotoxicity at 50 µM [1] | Selectivity Index [1] | CC50 at 48 h [2] | other results |
| --- | --- | --- | --- | --- | --- |
| CC[C@@]1(O)C(=O)OCc2c1cc1n(c2=O)Cc2cc3ccccc3nc2-1 [Camptothecin, reference compound] | 0.06 µM | 94.7% | 92.3 | 5.54 µM | – |
| CNCCCOc1c(Br)cc(CCNC(=O)/C(Cc2cc(Br)c(OC)c(Br)c2)=N/O)cc1Br [Compound 1, (E)-N-[3,5-Dibromo-4-[3-(methylamino)propoxy]phenethyl]-3-(3,5-dibromo-4-methoxyphenyl)-2-(hydroxyimino)propenamide] | 4.3 µM | 97.9% | 1.2 | 5.2 µM | Selectivity between A-375 and Hs27 (in words) ([1]; A-375 vs Hs27): no selectivity; Cytotoxicity against various cancer cell lines and non-cancer NIH3T3 (in words) [3]: cytotoxic |
| COc1c(Br)cc(C/C(=N\O)C(=O)NCCc2cc(Br)c(OCCCN)c(Br)c2)cc1Br [Compound 3] | – | – | – | – | Cytotoxic effect on HeLa cells (in words) [4]: comparably strong cytotoxic effect |
| COc1c(Br)cc(C/C(=N\O)C(=O)NCCc2cc(Br)c(O)c(Br)c2)cc1Br [Compound 4] | – | – | – | – | Cytotoxic effect on HeLa cells (in words) [4]: comparably strong cytotoxic effect |
| COc1c(Br)cc(C/C(=N\O)C(=O)NCCc2cc(Br)c(OCCCN(C)C)c(Br)c2)cc1Br [Compound 29, (E)-N-[3,5-Dibromo-4-[3-(dimethylamino)propoxy]phenethyl]-3-(3,5-dibromo-4-methoxyphenyl)-2-(hydroxyimino)propanamide] | 6.3 µM | 99.9% | 0.7 | 4.5 µM | – |
| COc1c(Br)cc(C/C(=N\O)C(=O)Nc2ccc(Cl)c(Cl)c2)cc1Br [Compound 30, (E)-3-(3,5-Dibromo-4-methoxyphenyl)-N-(3,4-dichlorophenyl)-2-(hydroxyimino)propanamide] | 13.1 µM | 101% | 1.2 | 15.2 µM | melting point: 198 °C (dec.) |
| COc1c(Br)cc(C/C(=N\O)C(=O)NCc2ccc(Cl)c(Cl)c2)cc1Br [Compound 31, (E)-3-(3,5-Dibromo-4-methoxyphenyl)-N-(3,4-dichlorobenzyl)-2-(hydroxyimino)propanamide] | 12.4 µM | 99.7% | 1.8 | 22.3 µM | – |
| COc1c(Br)cc(C/C(=N\O)C(=O)Nc2ccc(Cl)c(C(F)(F)F)c2)cc1Br [Compound 32, (E)-N-[4-Chloro-3-(trifluoromethyl)phenyl]-3-(3,5-dibromo-4-methoxyphenyl)-2-(hydroxyimino) propanamide] | 10.3 µM | 99.8% | 1.2 | 12 µM | – |
| COc1ccc(NC(=O)/C(Cc2cc(Br)c(OC)c(Br)c2)=N/O)cc1Cl [Compound 33, (E)-N-(3-Chloro-4-methoxyphenyl)-3-(3,5-dibromo-4-methoxyphenyl)-2-(hydroxyimino)propanamide] | 13.5 µM | 98.9% | 2.0 | 26.4 µM | – |
| COc1ccc(NC(=O)/C(Cc2cc(Br)c(OC)c(Br)c2)=N/O)cc1Br [Compound 34, (E)-N-(3-Bromo-4-methoxyphenyl)-3-(3,5-dibromo-4-methoxyphenyl)-2-(hydroxyimino)propanamide] | 16.2 µM | 100% | 1.4 | 22.5 µM | – |
| COc1c(Br)cc(C/C(=N\O)C(=O)Nc2cc(Cl)cc(Cl)c2)cc1Br [Compound 35, (E)-3-(3,5-Dibromo-4-methxyphenyl)-N-(3,5-dichlorophenyl)-2-(hydroxyimino)propanamide] | 9.6 µM | 101% | 1.3 | 12.2 µM | – |
| COc1c(Br)cc(C/C(=N\O)C(=O)Nc2ccccn2)cc1Br [Compound 36, (E)-3-(3,5-Dibromo-4-methoxyphenyl)-2-(hydroxyimino)-N-(pyridin-2-yl)propanamide] | 4.7 µM | 84.7% | 4.1 | 19.4 µM | melting point: 192 to 196 °C (dec.) |
| COc1c(Br)cc(C/C(=N\O)C(=O)Nc2cccnc2)cc1Br [Compound 37, (E)-3-(3,5-Dibromo-4-methoxyphenyl)-2-(hydroxyimino)-N-(pyridin-3-yl)propanamide] | 26.4 µM | 83.5% | – | – | – |
| COc1c(Br)cc(C/C(=N\O)C(=O)Nc2ccncc2)cc1Br [Compound 38, (E)-3-(3,5-Dibromo-4-methoxyphenyl)2-(hydroxyimino)-N-(pyridin-4-yl)propanamide] | – | 71.1% | – | – | – |
| COc1c(Br)cc(C/C(=N\O)C(=O)NCc2cccnc2)cc1Br [Compound 39, (E)-3-(3,5-Dibromo-4-methoxyphenyl)-2-(hydroxyimino)-N-(pyridin-3-ylmethyl)propanamide] | 22.1 µM | 93.2% | – | – | Cytotoxic activity in A-375 cells (in words) [1]: retained the activity |
| COc1c(Br)cc(C/C(=N\O)C(=O)Nc2ccc(N(C)C)cc2)cc1Br [Compound 40, (E)-3-(3,5-Dibromo-4-methoxyphenyl)-N-[4-(dimethylamino)phenyl]-2-(hydroxyimino)propanamide] | 27.8 µM | 99.1% | – | – | – |
| COc1ccc(C/C(=N\O)C(=O)Nc2ccc(OC)c(Br)c2)cc1Br [Compound 41, (E)-N,3-Bis(3-bromo-4-methoxyphenyl)-2-(hydroxyimino)propanamide] | 19.8 µM | 99.2% | – | – | Cytotoxic activity in A-375 cells (in words) [1]: showed activity |
| COc1ccc(C/C(=N\O)C(=O)Nc2ccccn2)cc1Br [Compound 42, (E)-3-(3-Bromo-4-methoxyphenyl)-2-(hydroxyimino)-N-(pyridin-2-yl)propanamide] | – | 2.7% | – | – | Cytotoxic activity in A-375 cells (in words) [1]: inactive; melting point: 214 to 217 °C (dec.) |
| COc1ccc(C/C(=N\O)C(=O)NCc2ccc(Cl)c(Cl)c2)cc1 [Compound 43, (E)-N-(3,4-Dichlorobenzyl)-2-(hydroxyimino)-3-(4-methoxyphenyl)propanamide] | – | 21.5% | – | – | – |
| COc1ccc(C/C(=N\O)C(=O)Nc2ccccn2)cc1 [Compound 44, (E)-2-(Hydroxyimino)-3-(4-methoxyphenyl)-N-(pyridin-2-yl)propanamide] | – | 0.4% | – | – | Cytotoxic activity in A-375 cells (in words) [1]: inactive |
| COc1ccc(C/C(=N\O)C(=O)Nc2ccccn2)cc1Cl [Compound 45, (E)-3-(3-Chloro-4-methoxyphenyl)-2-(hydroxyimino)-N-(pyridin-2-yl)propanamide] | – | 4% | – | – | Cytotoxic activity in A-375 cells (in words) [1]: inactive |

Reference: paper PMC6316490, “Synthesis and Antiproliferative Activity of Marine Bromotyrosine Purpurealidin I and Its Derivatives” (Marine Drugs, 2018)
